Results taken from PubChem BioAssay AID1963827 (Molecular Pharmacology Branch, DTP, NCI, 2024).
pIC50: −log10 of the molar value.

Test system: 994946-033-R-J1-PDC complex spheroid viability
Experiment: Anticancer human tumor 994946-033-R-J1-PDC patient-derived melanoma cell line growth inhibition [POLQ]
Details: for pIC50: curve of first compound; for viability, T/C: stronger effect = lower value
Summary of the method: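 PDC + HUVEC + MSC complex spheroids; POLQ inhibitors ± partner drugs; top conc. at/near clinical Cmax, else 10 microM (SN-38 1 microM), half-log dilutions; 37 degrees C, 5% CO2.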

[1] = second compound 0.0316 µM, first compound 0.0316 µM
[2] = second compound 0.0316 µM, first compound 0.1 µM
[3] = second compound 0.0316 µM, first compound 0.316 µM
[4] = second compound 0.0316 µM, first compound 1 µM
[5] = second compound 0.0316 µM, first compound 3.16 µM
[6] = second compound 0.0316 µM, first compound 10 µM
[7] = second compound 0.1 µM, first compound 0.0316 µM
[8] = second compound 0.1 µM, first compound 0.1 µM
[9] = second compound 0.1 µM, first compound 0.316 µM
[10] = second compound 0.1 µM, first compound 1 µM
[11] = second compound 0.1 µM, first compound 3.16 µM
[12] = second compound 0.1 µM, first compound 10 µM
[13] = second compound 0.316 µM, first compound 0.0316 µM
[14] = second compound 0.316 µM, first compound 0.1 µM
[15] = second compound 0.316 µM, first compound 0.316 µM
[16] = second compound 0.316 µM, first compound 1 µM
[17] = second compound 0.316 µM, first compound 3.16 µM
[18] = second compound 0.316 µM, first compound 10 µM
[19] = second compound 1 µM, first compound 0.0316 µM
[20] = second compound 1 µM, first compound 0.1 µM
[21] = second compound 1 µM, first compound 0.316 µM
[22] = second compound 1 µM, first compound 1 µM
[23] = second compound 1 µM, first compound 3.16 µM
[24] = second compound 1 µM, first compound 10 µM
[25] = second compound 3.16 µM, first compound 0.0316 µM
[26] = second compound 3.16 µM, first compound 0.1 µM
[27] = second compound 3.16 µM, first compound 0.316 µM
[28] = second compound 3.16 µM, first compound 1 µM
[29] = second compound 3.16 µM, first compound 3.16 µM
[30] = second compound 3.16 µM, first compound 10 µM
[31] = second compound 10 µM, first compound 0.0316 µM
[32] = second compound 10 µM, first compound 0.1 µM
[33] = second compound 10 µM, first compound 0.316 µM
[34] = second compound 10 µM, first compound 1 µM
[35] = second compound 10 µM, first compound 3.16 µM
[36] = second compound 10 µM, first compound 10 µM
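Also: spheroids exposed to drugs for 7 days.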
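For viability, T/C in this document: 100% = DMSO vehicle treated spheroids.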

## COc1cccc2c1C(=O)c1c(O)c3c(c(O)c1C2=O)CC(O)(C(=O)CO)CC3OC1CC(N)C(O)C(C)O1 (stereo unspecified) + Nc1ccc(C#CCN(C(=O)Cc2ncc(C(F)(F)F)cc2C(F)(F)F)c2ccc(F)cc2)nn1
Second compound 0.0316 µM
  pIC50: > 7.50
Second compound 0.1 µM
  pIC50: > 7.50
Second compound 0.316 µM
  pIC50: > 7.50
Second compound 1 µM
  pIC50: > 7.50
Second compound 3.16 µM
  pIC50: > 7.50
Second compound 10 µM
  pIC50: > 7.50
[1]
  viability, T/C: 39.1%
[2]
  viability, T/C: 8.96%
[3]
  viability, T/C: 4.51%
[4]
  viability, T/C: 0.95%
[5]
  viability, T/C: 0.91%
[6]
  viability, T/C: 1.45%
[7]
  viability, T/C: 47.5%
[8]
  viability, T/C: 11.3%
[9]
  viability, T/C: 7.5%
[10]
  viability, T/C: 1.92%
[11]
  viability, T/C: 1.44%
[12]
  viability, T/C: 1.04%
[13]
  viability, T/C: 38%
[14]
  viability, T/C: 13.6%
[15]
  viability, T/C: 5.83%
[16]
  viability, T/C: 0.57%
[17]
  viability, T/C: 1.8%
[18]
  viability, T/C: 1.29%
[19]
  viability, T/C: 47.9%
[20]
  viability, T/C: 10%
[21]
  viability, T/C: 4.77%
[22]
  viability, T/C: 0.51%
[23]
  viability, T/C: 1.35%
[24]
  viability, T/C: 0.99%
[25]
  viability, T/C: 32.4%
[26]
  viability, T/C: 13.9%
[27]
  viability, T/C: 4.86%
[28]
  viability, T/C: 1.22%
[29]
  viability, T/C: 1.11%
[30]
  viability, T/C: 1%
[31]
  viability, T/C: 35.3%
[32]
  viability, T/C: 14.7%
[33]
  viability, T/C: 3.59%
[34]
  viability, T/C: 1.41%
[35]
  viability, T/C: 0.94%
[36]
  viability, T/C: 1.07%

## CC(C)n1c(=O)n(C)c2cnc3cc(F)c(-c4ccc(OCCCN5CCCCC5)nc4)cc3c21 + Cc1cccc(N(C)C(=O)C2C(O)CCN2c2nc(C)cc(C(F)(F)F)c2C#N)c1
Second compound 0.0316 µM
  pIC50: 5.20
Second compound 0.1 µM
  pIC50: 5.33
Second compound 0.316 µM
  pIC50: 5.26
Second compound 1 µM
  pIC50: 5.25
Second compound 3.16 µM
  pIC50: 5.18
Second compound 10 µM
  pIC50: 5.38
[1]
  viability, T/C: 97.3%
[2]
  viability, T/C: 97.6%
[3]
  viability, T/C: 87.2%
[4]
  viability, T/C: 74.2%
[5]
  viability, T/C: 71.4%
[6]
  viability, T/C: 37.8%
[7]
  viability, T/C: 92.1%
[8]
  viability, T/C: 67.6%
[9]
  viability, T/C: 75.8%
[10]
  viability, T/C: 62.5%
[11]
  viability, T/C: 69.3%
[12]
  viability, T/C: 23.8%
[13]
  viability, T/C: 82.5%
[14]
  viability, T/C: 117%
[15]
  viability, T/C: 87.9%
[16]
  viability, T/C: 93.6%
[17]
  viability, T/C: 84.5%
[18]
  viability, T/C: 11.8%
[19]
  viability, T/C: 97%
[20]
  viability, T/C: 81%
[21]
  viability, T/C: 94%
[22]
  viability, T/C: 93.6%
[23]
  viability, T/C: 83.5%
[24]
  viability, T/C: 16.3%
[25]
  viability, T/C: 94.8%
[26]
  viability, T/C: 62.2%
[27]
  viability, T/C: 94.4%
[28]
  viability, T/C: 90.7%
[29]
  viability, T/C: 92%
[30]
  viability, T/C: 29.4%
[31]
  viability, T/C: 109%
[32]
  viability, T/C: 92.6%
[33]
  viability, T/C: 93.2%
[34]
  viability, T/C: 74.7%
[35]
  viability, T/C: 63.2%
[36]
  viability, T/C: 22.3%

## CC1COCCN1c1cc(-c2ccnn2C)c2ccnc(-c3ccn[nH]3)c2n1 (stereo unspecified) + Nc1ccc(C#CCN(C(=O)Cc2ncc(C(F)(F)F)cc2C(F)(F)F)c2ccc(F)cc2)nn1
Second compound 0.0316 µM
  pIC50: 7.19
Second compound 0.1 µM
  pIC50: 7.14
Second compound 0.316 µM
  pIC50: 7.14
Second compound 1 µM
  pIC50: 7.13
Second compound 3.16 µM
  pIC50: 7.21
Second compound 10 µM
  pIC50: 7.09
[1]
  viability, T/C: 65.8%
[2]
  viability, T/C: 41.7%
[3]
  viability, T/C: 21.8%
[4]
  viability, T/C: 29.1%
[5]
  viability, T/C: 19.8%
[6]
  viability, T/C: 15.4%
[7]
  viability, T/C: 86.3%
[8]
  viability, T/C: 31.8%
[9]
  viability, T/C: 29.6%
[10]
  viability, T/C: 26%
[11]
  viability, T/C: 16.3%
[12]
  viability, T/C: 9.84%
[13]
  viability, T/C: 70.5%
[14]
  viability, T/C: 40.5%
[15]
  viability, T/C: 26.1%
[16]
  viability, T/C: 23.6%
[17]
  viability, T/C: 17.5%
[18]
  viability, T/C: 9.71%
[19]
  viability, T/C: 75.5%
[20]
  viability, T/C: 33.7%
[21]
  viability, T/C: 32.9%
[22]
  viability, T/C: 33.6%
[23]
  viability, T/C: 15.4%
[24]
  viability, T/C: 14.1%
[25]
  viability, T/C: 60.7%
[26]
  viability, T/C: 42.4%
[27]
  viability, T/C: 22.1%
[28]
  viability, T/C: 21.1%
[29]
  viability, T/C: 25.6%
[30]
  viability, T/C: 14.1%
[31]
  viability, T/C: 76.1%
[32]
  viability, T/C: 44%
[33]
  viability, T/C: 21.1%
[34]
  viability, T/C: 21.7%
[35]
  viability, T/C: 21.6%
[36]
  viability, T/C: 15.8%
